According to PubChem BioAssay AID330 (DTP/NCI, 2004):
“And” between values parts separate entries of the source, which are not always exact repeats. Identical values can stand only once. Toxic doses and inconclusive results are not listed. The calls were made as follows: active = survival T/C of 150% or more; inactive = T/C below 125% in these data.

Tested on: P388 leukemia ip, CD2F1 mice, survival T/C
Assay: NCI In Vivo Anticancer Drug Screen. Data for tumor model P388 Leukemia (intraperitoneal) in CD2F1 (CDF1) mice
Conditions: endpoint: median survival time, higher = longer survival
Outline: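 Mice carrying the transplanted tumor received test compound or vehicle. Survival was recorded in each group, and the value is the treated-group measurement divided by that of the vehicle-treated control group.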

[1] = dose: 60.0 mg/kg/injection, schedule: Q01DX005 (ip), vehicle: saline with Tween-80
[2] = dose: 120.0 mg/kg/injection, schedule: Q01DX005 (ip), vehicle: saline with Tween-80
[3] = dose: 240.0 mg/kg/injection, schedule: Q01DX005 (ip), vehicle: saline with Tween-80
[4] = dose: 50.0 mg/kg/injection, schedule: Q01DX005 (ip), vehicle: saline with Tween-80
[5] = dose: 100.0 mg/kg/injection, schedule: Q01DX005 (ip), vehicle: saline with Tween-80
[6] = dose: 200.0 mg/kg/injection, schedule: Q01DX005 (ip), vehicle: saline with Tween-80
[7] = dose: 50.0 mg/kg/injection, schedule: Q01DX009 (ip), vehicle: Klucel (hydroxypropylcellulose) (HPC)
[8] = dose: 100.0 mg/kg/injection, schedule: Q01DX009 (ip), vehicle: Klucel (hydroxypropylcellulose) (HPC)
[9] = dose: 200.0 mg/kg/injection, schedule: Q01DX009 (ip), vehicle: Klucel (hydroxypropylcellulose) (HPC)
[10] = dose: 25.0 mg/kg/injection, schedule: Q01DX009 (ip), vehicle: saline with Tween-80
[11] = dose: 50.0 mg/kg/injection, schedule: Q01DX009 (ip), vehicle: saline with Tween-80
[12] = dose: 100.0 mg/kg/injection, schedule: Q01DX009 (ip), vehicle: saline with Tween-80
[13] = dose: 12.5 mg/kg/injection, schedule: Q01DX009 (ip), vehicle: saline with Tween-80
[14] = dose: 200.0 mg/kg/injection, schedule: Q01DX009 (ip), vehicle: saline with Tween-80

Measured: T/C

CC1=C[C@H]2[C@@]3(O)[C@H](C)[C@@H](OC(=O)/C=C\c4ccccc4)[C@]4(OC(=O)/C=C\c5ccccc5)[C@H]([C@@H]3C=C(COC(=O)/C=C\c3ccccc3)C[C@]2(O)C1=O)C4(C)C
inactive: dose: 0.18 mg/kg/injection, schedule: Q01DX005 (ip), vehicle: saline + alcohol 92 % of control | dose: 0.35 mg/kg/injection, schedule: Q01DX005 (ip), vehicle: saline + alcohol 95 % of control | dose: 0.7 mg/kg/injection, schedule: Q01DX005 (ip), vehicle: saline + alcohol 95 % of control | dose: 1.4 mg/kg/injection, schedule: Q01DX005 (ip), vehicle: saline + alcohol 95 % of control | dose: 2.8 mg/kg/injection, schedule: Q01DX005 (ip), vehicle: saline + alcohol 102 % of control

Cc1nc2ccccc2c(=O)n1-c1nc2ccccc2s1
inactive: [1] 92 % of control | [2] 89 % of control and 90 % of control | [3] 103 % of control

O=c1[nH]ncn2nc3ccccc3c12
inactive: [4] 100 % of control | [5] 100 % of control | [6] 104 % of control

Clc1ccc(N=Cc2cccs2)cc1Cl
inactive: [7] 110 % of control | [8] 107 % of control | [9] 110 % of control

CCC(SC)(SC)C(=O)N(C)c1ccccc1
inactive: [10] 100 % of control | [11] 104 % of control | [12] 100 % of control

C/C=C/N=NNc1ccccc1
inactive: dose: 100.0 mg/kg/injection, schedule: Q04DX003 (ip), vehicle: saline + Tween-80 + alcohol 111 % of control | dose: 200.0 mg/kg/injection, schedule: Q04DX003 (ip), vehicle: saline + Tween-80 + alcohol 112 % of control | dose: 400.0 mg/kg/injection, schedule: Q04DX003 (ip), vehicle: saline + Tween-80 + alcohol 106 % of control

COc1cc(N2C(=O)CSC2=S)cc(OC)c1OC
inactive: [7] 100 % of control | [8] 89 % of control | [9] 101 % of control

CC(=O)CC1(O)C(=O)Nc2ccc(Br)cc21 (stereo not given)
inactive: [7] 100 % of control | [8] 108 % of control | [9] 92 % of control

O=C(Nc1ccccc1)/C(Cl)=C1/Sc2ccccc2NC1=O
inactive: [1] 104 % of control | [2] 107 % of control | [3] 99 % of control

O=C(CCCN1CCC(C(O)c2ccc(F)cc2)CC1)c1ccc(F)cc1 (stereo not given)
inactive: dose: 3.0 mg/kg/injection, schedule: Q01DX005 (ip), vehicle: saline with Tween-80 101 % of control | dose: 3.13 mg/kg/injection, schedule: Q01DX009 (ip), vehicle: saline with Tween-80 98 % of control | dose: 6.0 mg/kg/injection, schedule: Q01DX005 (ip), vehicle: saline with Tween-80 104 % of control | dose: 6.25 mg/kg/injection, schedule: Q01DX009 (ip), vehicle: saline with Tween-80 92 % of control | dose: 12.0 mg/kg/injection, schedule: Q01DX005 (ip), vehicle: saline with Tween-80 98 % of control | [13] 103 % of control | [10] 107 % of control | [4] 114 % of control | [11] 100 % of control | [12] 95 % of control

COc1cccc(C(=O)CC(c2ccccc2)C(C)(C)[N+](=O)[O-])c1 (stereo not given)
inactive: dose: 25.0 mg/kg/injection, schedule: Q01DX005 (ip), vehicle: saline with Tween-80 105 % of control | [4] 99 % of control | [5] 99 % of control

Nc1ccc2nc[nH]c2c1
inactive: dose: 25.0 mg/kg/injection, schedule: Q04DX002 (ip), vehicle: Klucel (hydroxypropylcellulose) (HPC) 101 % of control | dose: 50.0 mg/kg/injection, schedule: Q04DX002 (ip), vehicle: Klucel (hydroxypropylcellulose) (HPC) 104 % of control | dose: 100.0 mg/kg/injection, schedule: Q04DX002 (ip), vehicle: Klucel (hydroxypropylcellulose) (HPC) 101 % of control and 90 % of control

CCC(Oc1c2ccoc2c(OC)c2oc(C)cc(=O)c12)C(=O)OCCN1CCOCC1 (stereo not given)
inactive: [4] 102 % of control | [5] 104 % of control | [6] 98 % of control

O=C1C(Cl)=C(n2c3ccccc3c3ccccc32)C(=O)c2ccccc21
inactive: dose: 6.25 mg/kg/injection, schedule: Q01DX005 (ip), vehicle: saline with Tween-80 108 % of control | dose: 12.5 mg/kg/injection, schedule: Q01DX005 (ip), vehicle: saline with Tween-80 104 % of control

CC[N]1c2cc(C(C)(C)C)cc(C(C)(C)C)c2[O][Sb]1([c]1ccccc1)([c]1ccccc1)[c]1ccccc1
inactive: [11] 98 % of control | [12] 100 % of control | [14] 98 % of control

CCOC(=O)C1Cc2nc(N)ncc2C1=O (stereo not given)
inactive: dose: 15.0 mg/kg/injection, schedule: Q01DX009 (ip), vehicle: saline with Tween-80 96 % of control | dose: 30.0 mg/kg/injection, schedule: Q01DX009 (ip), vehicle: saline with Tween-80 107 % of control | dose: 60.0 mg/kg/injection, schedule: Q01DX009 (ip), vehicle: saline with Tween-80 114 % of control

Cn1nc(-c2cccnc2)[n+]([O-])c2c(=O)n(C)c(=O)nc1-2
inactive: dose: 45.0 mg/kg/injection, schedule: Q01DX009 (ip), vehicle: saline with Tween-80 100 % of control | dose: 90.0 mg/kg/injection, schedule: Q01DX009 (ip), vehicle: saline with Tween-80 109 % of control | dose: 180.0 mg/kg/injection, schedule: Q01DX009 (ip), vehicle: saline with Tween-80 112 % of control

Nc1nc(-c2ccc3ccccc3c2)cc(-c2cc(-c3ccc4ccccc4c3)nc(N)n2)n1
inactive: dose: 60.0 mg/kg/injection, schedule: Q01DX005 (ip), vehicle: Klucel (hydroxypropylcellulose) (HPC) 96 % of control | dose: 120.0 mg/kg/injection, schedule: Q01DX005 (ip), vehicle: Klucel (hydroxypropylcellulose) (HPC) 93 % of control | dose: 240.0 mg/kg/injection, schedule: Q01DX005 (ip), vehicle: Klucel (hydroxypropylcellulose) (HPC) 91 % of control

O=P1(O)CC2=C(CC=CC2)C1
inactive: [11] 98 % of control | [12] 89 % of control | [14] 98 % of control

COc1cc(OC)c(NC(=O)ON2C(=O)c3ccccc3C2=O)cc1Cl
inactive: [13] 119 % of control | [10] 122 % of control | [11] 122 % of control | [12] 110 % of control

COC(=O)c1ccccc1NC(=NC(C)(C)C)c1ccccc1
inactive: [11] 98 % of control | [12] 98 % of control | [14] 91 % of control

CC1C(O)C2(Oc3cc4c(c5c3[C@@H](CC5O)[C@H]2C)CCC2Cc3nc5c(nc3C[C@@]42C)CC2CCC3C4=C[C@H]6O[C@@]7(O[C@@](C)(CO)C[C@@H]7O)C(C)[C@@]6(O)[C@]4(C)[C@@H](O)CC3[C@]2(C)C5)OC1(C)C (stereo not given in full)
inactive: dose: 12.5 micrograms/kg/injection, schedule: Q01DX009 (ip), vehicle: saline + alcohol 107 % of control | dose: 25.0 micrograms/kg/injection, schedule: Q01DX009 (ip), vehicle: saline + alcohol 100 % of control | dose: 50.0 micrograms/kg/injection, schedule: Q01DX009 (ip), vehicle: saline + alcohol 107 % of control | dose: 100.0 micrograms/kg/injection, schedule: Q01DX009 (ip), vehicle: saline + alcohol 109 % of control

CC(C)N[P+](c1ccccc1)(c1ccccc1)c1ccccc1
inactive: dose: 25.0 mg/kg/injection, schedule: Q04DX003 (ip), vehicle: saline 96 % of control

O=S(=O)(Nc1ccc(NS(=O)(=O)c2ccccc2)cc1)c1ccccc1
inactive: dose: 50.0 mg/kg/injection, schedule: Q04DX003 (ip), vehicle: saline 100 % of control | dose: 100.0 mg/kg/injection, schedule: Q04DX003 (ip), vehicle: saline 109 % of control | dose: 200.0 mg/kg/injection, schedule: Q04DX003 (ip), vehicle: saline 100 % of control

Cc1cccc(-n2c(N)cc(=O)[nH]c2=S)n1
inactive: dose: 25.0 mg/kg/injection, schedule: Q01DX001 (ip), vehicle: saline with Tween-80 100 % of control | dose: 50.0 mg/kg/injection, schedule: Q01DX001 (ip), vehicle: saline with Tween-80 100 % of control | dose: 100.0 mg/kg/injection, schedule: Q01DX001 (ip), vehicle: saline with Tween-80 109 % of control

COC(=O)c1cc2cc(OC)c(OC)cc2c2ccccc12
inactive: [4] 90 % of control | [5] 90 % of control

O=[N+]([O-])c1ccc(/C=C(/c2ccc([N+](=O)[O-])o2)S(=O)(=O)c2ccccc2)o1
inactive: dose: 50.0 mg/kg/injection, schedule: Q01DX009 (ip), vehicle: suspension in saline 95 % of control | dose: 100.0 mg/kg/injection, schedule: Q01DX009 (ip), vehicle: suspension in saline 100 % of control

CN1CC[As+](Cc2ccccc2)(c2ccccc2)CC1
inactive: dose: 100.0 mg/kg/injection, schedule: Q01DX001 (ip), vehicle: saline 87 % of control | dose: 200.0 mg/kg/injection, schedule: Q01DX001 (ip), vehicle: saline 102 % of control | dose: 400.0 mg/kg/injection, schedule: Q01DX001 (ip), vehicle: saline 104 % of control
